# Assay results as given in US11999723B2, “Pyrazole-containing macrophage migration inhibitory factor inhibitors” (priority 2018, dated 2024).
# Molecular target: MIF (Homo sapiens (Human), UniProt P14174)
# Test: HPP tautomerase assay (inhibition of the tautomerase activity of MIF)
# Assay type: biochemical
# Settings: not given
# Protocol: Inhibition of the tautomerase activity of MIF was measured using the substrate 4-hydroxyphenyl pyruvic acid (HPP) in a procedure largely adapted from previous reports. A solution of HPP (10 mM) in acetate buffer (0.5 M ammonium acetate, pH adjusted to 6.0) was prepared and allowed to incubate overnight in the dark at room temperature to allow for equilibration of the keto and enol forms. Following the incubation period, the HPP solution was stored at 4° C. and used for no more than a week. […] A negative control (containing water and DMSO in lieu of protein and inhibitor, respectively) and a positive control (containing DMSO in lieu of inhibitor) were also prepared. The reaction began upon the addition of HPP solution (final concentration: 1.0 mM and 2.5 mM). […] Absorbance was measured three times for each [inhibitor]-[HPP] combination. […] Reported Ki values represent the average value obtained from two assays performed on different days. (R)-ISO-1 (purchased from Santa Cruz Biotechnology) was used as a control.
# Recombinant human MIF was expressed and purified according to published protocols. Briefly, for the purification of MIF, E. coli cell pellets were suspended in lysis buffer (20 mM Tris, pH 7.5; 20 mM sodium chloride; 10% glycerol; 2 mM magnesium chloride; 1 cOmplete mini protease inhibitor cocktail tablet per 250 mL of buffer). The solution was sonicated and centrifuged at 27,000G for 30 mins. The supernatant was filtered through a 0.22 μm syringe filter and loaded on a GE Healthcare Hi-Trap SP HP column in sequence with a GE Healthcare Hi-Trap Q SP column equilibrated with a buffer composed of 20 mM NaCl and 20 mM Tris, pH 7.5. […] To achieve highest purity, the flow-through was further purified with a GE Healthcare Superdex 200 column. The purified protein was concentrated with a 10 kDa centrifugal filter unit to 30 mg/mL, flash-frozen in liquid nitrogen, and stored at −80° C.
# As in prior studies, the inhibition constants Ki were determined using HPP as the substrate. […] In addition, the aqueous solubilities of several compounds were measured with a shake-flask procedure.
# Sequence of MIF (P14174 2-115): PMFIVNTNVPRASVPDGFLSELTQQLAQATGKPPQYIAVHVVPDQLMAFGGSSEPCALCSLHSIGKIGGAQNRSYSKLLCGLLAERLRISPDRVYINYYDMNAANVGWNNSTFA
row,Compound,Ki [µM]
1,"O=C(O)c1cc(-c2cn[nH]c2)ccc1-c1ccc2ccccc2c1 [Compound 6c, 2-(Naphthalen-2-yl)-5-(1H-pyrazol-4-yl)benzoic acid]",5

# Same assay, conditions: HPP as substrate; MIF tautomerase; read-out: Experimental inhibition constants, Ki
row,Compound,Ki [µM]
1,"O=C(O)c1cc(-c2c[nH]nc2F)ccc1Oc1cccc2ccccc12 [Compound 8m, 5-(3-Fluoro-1H-pyrazol-4-yl)-2-(naphthalen-1-yloxy)benzoic acid]",0.48
2,"CCc1cccc2cc(Oc3ccc(-c4c[nH]nc4F)cc3C(=O)O)ccc12 [Compound 8p, 2-((5-Ethylnaphthalen-2-yl)oxy)-5-(3-fluoro-1H-pyrazol-4-yl)benzoic acid]",0.17
3,"CCc1cc(Oc2ccc(-c3c[nH]nc3F)cc2C(=O)O)cc2ccccc12 [Compound 8o, 2-((4-Ethylnaphthalen-2-yl)oxy)-5-(3-fluoro-1H-pyrazol-4-yl)benzoic acid]",0.15
4,"CCc1ccc2ccc(Oc3ccc(-c4c[nH]nc4F)cc3C(=O)O)cc2c1 [Compound 8q, 2-((7-Ethylnaphthalen-2-yl)oxy)-5-(3-fluoro-1H-pyrazol-4-yl)benzoic acid]",0.14
5,"O=C(O)c1cc(-c2c[nH]nc2F)ccc1Oc1cc(C2CC2)c2ccccc2c1 [Compound 8r, 2-((4-Cyclopropylnaphthalen-2-yl)oxy)-5-(3-fluoro-1H-pyrazol-4-yl)benzoic acid]",0.11
6,"Cc1ccccc1Oc1ccc(-c2cn[nH]c2)cc1C(=O)O [Compound 8b, 5-(1H-Pyrazol-4-yl)-2-(o-tolyloxy)benzoic acid]",4.3
7,"Cc1cccc(Oc2ccc(-c3cn[nH]c3)cc2C(=O)O)c1 [Compound 8c, 5-(1H-Pyrazol-4-yl)-2-(m-tolyloxy)benzoic acid]",3.8
8,"O=C(O)c1cc(-c2cn[nH]c2)ccc1Oc1ccccc1 [Compound 8a, 2-Phenoxy-5-(1H-pyrazol-4-yl)benzoic acid]",6.8
9,"O=C(O)c1cc(-c2cn[nH]c2)ccc1-c1ccc2ccccc2c1 [Compound 6c, 2-(Naphthalen-2-yl)-5-(1H-pyrazol-4-yl)benzoic acid]",5.4
10,"O=C(O)c1cc(-c2cn[nH]c2)ccc1Oc1ccc(F)cc1 [Compound 8f, 2-(4-Fluorophenoxy)-5-(1H-pyrazol-4-yl)benzoic acid]",4.6
11,"O=C(O)c1cc(-c2cn[nH]c2)ccc1OC1C2CC3CC(C2)CC1C3 (stereo not drawn) [Compound 8k, 2-((Adamantan-2-yl)oxy)-5-(1H-pyrazol-4-yl)benzoic acid]",2.6
12,"O=C(O)c1cc(-c2cn[nH]c2)ccc1Nc1ccccc1 [Compound 7a, 2-(Phenylamino)-5-(1H-pyrazol-4-yl)benzoic acid]",12.7
13,"O=C(O)c1cc(-c2cn[nH]c2)ccc1-c1cccc2ccccc12 [Compound 6b, 2-(Naphthalen-1-yl)-5-(1H-pyrazol-4-yl)benzoic acid]",19.5
14,"O=C(O)c1cc(-c2cn[nH]c2)ccc1Oc1cc2c3c(cccc3c1)CC2 [Compound 8l, 2-((1,2-Dihydroacenaphthylen-4-yl)oxy)-5-(1H-pyrazol-4-yl)benzoic acid]",1.1
15,"O=C(O)c1cc(-c2c[nH]nc2F)ccc1Oc1cccc(-c2ccccc2)c1 [Compound 8u, 2-([1,1′-Biphenyl]-3-yloxy)-5-(3-fluoro-1H-pyrazol-4-yl)benzoic acid]",0.13
16,"O=C(O)c1cc(-c2cn[nH]c2)ccc1Oc1cccc(F)c1 [Compound 8e, 2-(3-Fluorophenoxy)-5-(1H-pyrazol-4-yl)benzoic acid]",1.7
17,"CCc1ccc2c(C3CC3)cc(Oc3ccc(-c4c[nH]nc4F)cc3C(=O)O)cc2c1 [Compound 8s, 2-((4-Cyclopropyl-7-ethylnaphthalen-2-yl)oxy)-5-(3-fluoro-1H-pyrazol-4-yl)benzoic acid]",0.066
18,"Cc1cc(C)cc(-c2cccc(Oc3ccc(-c4c[nH]nc4F)cc3C(=O)O)c2)c1 [Compound 8v, 2-((3′,5′-Dimethyl-[1,1′-biphenyl]-3-yl)oxy)-5-(3-fluoro-1H-pyrazol-4-yl)benzoic acid]",0.24
19,"Cc1ccc(Oc2ccc(-c3cn[nH]c3)cc2C(=O)O)cc1 [Compound 8d, 5-(1H-Pyrazol-4-yl)-2-(p-tolyloxy)benzoic acid]",7

# Same assay, conditions: HPP tautomerase assay
row,Compound,lowering of the Ki relative to 8n [fold]
1,"CCc1cccc2cc(Oc3ccc(-c4c[nH]nc4F)cc3C(=O)O)ccc12 [Compound 8p, 2-((5-Ethylnaphthalen-2-yl)oxy)-5-(3-fluoro-1H-pyrazol-4-yl)benzoic acid]",3
2,"CCc1cc(Oc2ccc(-c3c[nH]nc3F)cc2C(=O)O)cc2ccccc12 [Compound 8o, 2-((4-Ethylnaphthalen-2-yl)oxy)-5-(3-fluoro-1H-pyrazol-4-yl)benzoic acid]",3
3,"CCc1ccc2ccc(Oc3ccc(-c4c[nH]nc4F)cc3C(=O)O)cc2c1 [Compound 8q, 2-((7-Ethylnaphthalen-2-yl)oxy)-5-(3-fluoro-1H-pyrazol-4-yl)benzoic acid]",3

# Same assay, conditions: Table 3; HPP as substrate; unit inferred; read-out: HPP Ki
row,Compound,Ki [µM]
1,"O=C(O)c1cc(-c2cn[nH]c2)ccc1Oc1cccc(Cl)c1 [Compound 9f, 2-(3-chlorophenoxy)-5-(1H-pyrazol-4-yl)benzoic acid]",20
2,"Cc1n[nH]cc1-c1ccc(Oc2ccc3ccccc3c2)c(C(=O)O)c1 [Compound 9cc, 5-(3-methyl-1H-pyrazol-4-yl)-2-(naphthalen-2-yloxy)benzoic acid]",15
3,"O=C(O)c1cc(-c2cn[nH]c2)ccc1[S+]([O-])c1ccccc1 (stereo not drawn) [Compound 9r, 2-(phenylsulfinyl)-5-(1H-pyrazol-4-yl)benzoic acid]",13
4,"CC(=O)NCCc1ccc(Oc2ccc(-c3cn[nH]c3)cc2C(=O)O)cc1 [Compound 9l, 2-(4-(2-acetamidoethyl)phenoxy)-5-(1H-pyrazol-4-yl)benzoic acid]",11
5,"O=C(O)c1cc(-c2cn[nH]c2)ccc1Oc1ccc2occc2c1 [Compound 9o, 2-(benzofuran-5-yloxy)-5-(1H-pyrazol-4-yl)benzoic acid]",3.8
6,"O=C(O)c1cc(-c2c[nH]nc2F)ccc1Oc1ccc2c(c1)CCCC2 [Compound 9y, 5-(3-fluoro-1H-pyrazol-4-yl)-2-((5,6,7,8-tetrahydronaphthalen-2-yl)oxy)benzoic acid]",0.26
7,"O=C(O)c1cc(-c2cn[nH]c2)ccc1Oc1ccc2ccoc2c1 [Compound 9p, 2-(benzofuran-6-yloxy)-5-(1H-pyrazol-4-yl)benzoic acid]",1.5
8,"Cc1ccc(-c2cn[nH]c2)cc1C(=O)O [Compound 9e, 2-methyl-5-(1H-pyrazol-4-yl)benzoic acid]",60
9,"O=C(O)c1cc(-c2cn[nH]c2)ccc1Oc1cccc2ccoc12 [Compound 9m, 2-(benzofuran-7-yloxy)-5-(1H-pyrazol-4-yl)benzoic acid]",3.7
10,"O=C(O)c1cc(-c2c[nH]nc2F)ccc1Oc1cccc(F)c1 [Compound 9t, 5-(3-fluoro-1H-pyrazol-4-yl)-2-(3-fluorophenoxy)benzoic acid]",2.1
11,"COc1ccc(Oc2ccc(-c3cn[nH]c3)cc2C(=O)O)cc1 [Compound 9h, 2-(4-methoxyphenoxy)-5-(1H-pyrazol-4-yl)benzoic acid]",2.3
12,"O=C(O)c1cc(-c2c[nH]nc2F)ccc1Oc1ccc2ccoc2c1 [Compound 9s, 2-(benzofuran-6-yloxy)-5-(3-fluoro-1H-pyrazol-4-yl)benzoic acid]",0.57
13,"O=C(O)c1cccc(Oc2ccc(-c3cn[nH]c3)cc2C(=O)O)c1 [Compound 9n, 2-(3-carboxyphenoxy)-5-(1H-pyrazol-4-yl)benzoic acid]",9.4
14,"COc1cccc(Oc2ccc(-c3cn[nH]c3)cc2C(=O)O)c1 [Compound 9i, 2-(3-methoxyphenoxy)-5-(1H-pyrazol-4-yl)benzoic acid]",2.5
15,"O=C(O)c1cc(-c2c[nH]nc2F)ccc1Oc1cc2c3c(cccc3c1)CC2 [Compound 9v, 2-((1,2-dihydroacenaphthylen-4-yl)oxy)-5-(3-fluoro-1H-pyrazol-4-yl)benzoic acid]",0.1
16,"O=C(O)c1cc(-c2c[nH]nc2F)ccc1Oc1ccc2ccc(C3CC3)cc2c1 [Compound 9x, 2-((7-cyclopropylnaphthalen-2-yl)oxy)-5-(3-fluoro-1H-pyrazol-4-yl)benzoic acid]",0.15
